# Laboratory results reported in patent publication US20250195504A1, “NALTREXAMINE DERIVATIVES BEARING 5-MEMBER HETEROCYCLIC RING SYSTEMS AND OPIOID RECEPTOR MODULATORS” (VIRGINIA COMMONWEALTH UNIVERSITY, priority 2022, published 2025).
# Counter-ions that a name gives are not always drawn. Like-named read-outs stand apart in the source and are kept apart here.
# Tests used:
# [1] = target: T1, DOR (Homo sapiens, UniProt P41143); experiment: DOR [35S]GTPγS binding assay; format: biochemical; conditions: Tables A, B
# T1 construct: expressed in transfected cells; host or cells: CHO
# T1 sequence (P41143 whole entry): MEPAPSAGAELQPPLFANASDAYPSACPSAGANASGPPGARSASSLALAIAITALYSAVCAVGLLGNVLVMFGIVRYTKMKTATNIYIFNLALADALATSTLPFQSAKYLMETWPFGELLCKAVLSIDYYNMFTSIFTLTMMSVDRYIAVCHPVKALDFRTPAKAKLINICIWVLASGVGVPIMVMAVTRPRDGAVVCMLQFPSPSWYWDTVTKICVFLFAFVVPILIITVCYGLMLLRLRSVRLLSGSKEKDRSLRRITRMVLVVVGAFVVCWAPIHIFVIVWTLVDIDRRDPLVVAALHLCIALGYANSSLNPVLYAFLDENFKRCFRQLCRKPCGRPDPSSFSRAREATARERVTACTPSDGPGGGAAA
# Description: (§1) The [^35S]GTPγS functional assay was conducted to determine the efficacy of the compounds at the MOR, KOR and DOR. […] The Bradford protein assay was utilized to determine and adjust the concentration of protein required for the assay. Nonspecific binding was determined with 20 μM unlabeled GTPγS. Furthermore, 3 μM DAMGO/U50488H/SNC80 was included in the assay as the maximally effective concentration of a full agonist for the MOR/KOR/DOR. After incubation, the bound radioactive ligand was separated from the free radioligand by filtration through a GF/B glass fiber filter paper using a Brandel harvester. Bound radioactivity was determined by liquid scintillation counting. All assays were determined in duplicate and repeated at least three times. Net stimulated [^35S]GTPγS binding was defined as agonist-stimulated minus basal binding in the absence of agonist. Percent of DAMGO/U50488H/SNC80 stimulated [^35S]GTPγS binding was defined as (net-stimulated binding by ligand/net-stimulated binding by 3 μM DAMGO U50488H/SNC80)×100%.
# [2] = system: self-administration rat model; experiment: Self-administration Studies, Food vs Drug (heroin choice); format: in vivo
# [3] = target: T2, hM1 (Homo sapiens, UniProt P11229); experiment: side effect profiling, hM1; format: binding; conditions: for hM1 binding: at 10 uM
# T2 sequence (P11229 1-460): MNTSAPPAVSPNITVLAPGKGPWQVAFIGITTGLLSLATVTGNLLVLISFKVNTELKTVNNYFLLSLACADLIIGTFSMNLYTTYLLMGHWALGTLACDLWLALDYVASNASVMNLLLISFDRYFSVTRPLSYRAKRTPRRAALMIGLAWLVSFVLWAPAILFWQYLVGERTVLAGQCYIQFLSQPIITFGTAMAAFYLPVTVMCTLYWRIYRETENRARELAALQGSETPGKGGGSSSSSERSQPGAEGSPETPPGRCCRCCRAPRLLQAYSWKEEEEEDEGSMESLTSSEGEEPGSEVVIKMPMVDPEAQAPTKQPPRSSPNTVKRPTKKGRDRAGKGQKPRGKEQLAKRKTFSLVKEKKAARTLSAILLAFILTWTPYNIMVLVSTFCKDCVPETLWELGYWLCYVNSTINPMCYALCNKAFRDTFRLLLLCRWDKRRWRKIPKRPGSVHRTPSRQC
# [4] = target: T3, hM2 (Homo sapiens, UniProt P08172); experiment: side effect profiling, hM2; format: binding; conditions: for hM2 binding: at 10 uM
# T3 sequence (P08172 1-466): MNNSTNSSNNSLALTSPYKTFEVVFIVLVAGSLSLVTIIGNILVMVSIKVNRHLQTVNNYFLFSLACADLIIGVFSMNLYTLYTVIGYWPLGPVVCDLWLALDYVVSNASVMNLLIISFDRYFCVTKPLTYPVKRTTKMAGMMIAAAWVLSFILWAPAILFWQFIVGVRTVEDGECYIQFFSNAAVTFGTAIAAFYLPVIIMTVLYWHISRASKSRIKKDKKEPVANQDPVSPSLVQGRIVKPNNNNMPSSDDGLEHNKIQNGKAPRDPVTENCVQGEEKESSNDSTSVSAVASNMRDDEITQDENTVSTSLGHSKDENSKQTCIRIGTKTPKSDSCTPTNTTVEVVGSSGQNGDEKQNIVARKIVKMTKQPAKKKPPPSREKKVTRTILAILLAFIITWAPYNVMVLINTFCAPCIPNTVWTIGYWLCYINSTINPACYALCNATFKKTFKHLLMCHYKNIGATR
# [5] = target: T4, hM4 (Homo sapiens, UniProt P08173); experiment: side effect profiling, hM4; format: binding; conditions: for hM4 binding: at 10 uM
# T4 sequence (P08173 1-479): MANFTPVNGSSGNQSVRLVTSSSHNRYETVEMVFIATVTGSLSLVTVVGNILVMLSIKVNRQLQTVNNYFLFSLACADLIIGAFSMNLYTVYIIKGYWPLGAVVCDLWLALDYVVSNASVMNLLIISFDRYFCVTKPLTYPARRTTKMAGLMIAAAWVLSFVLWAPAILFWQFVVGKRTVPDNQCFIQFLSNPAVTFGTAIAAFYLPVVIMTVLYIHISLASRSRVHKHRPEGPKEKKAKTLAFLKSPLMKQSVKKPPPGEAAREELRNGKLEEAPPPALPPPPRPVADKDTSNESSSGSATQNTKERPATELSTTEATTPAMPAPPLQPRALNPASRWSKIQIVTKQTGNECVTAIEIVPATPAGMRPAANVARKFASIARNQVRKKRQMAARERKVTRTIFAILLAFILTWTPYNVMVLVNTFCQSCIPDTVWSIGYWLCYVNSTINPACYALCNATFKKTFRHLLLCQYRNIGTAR
# [6] = solubility; conditions: Tables A, B
# [7] = AMES testing
# [8] = target: hERG channel (Homo sapiens, UniProt Q12809); experiment: hERG channel testing
# Chain of hERG channel (Q12809 whole entry): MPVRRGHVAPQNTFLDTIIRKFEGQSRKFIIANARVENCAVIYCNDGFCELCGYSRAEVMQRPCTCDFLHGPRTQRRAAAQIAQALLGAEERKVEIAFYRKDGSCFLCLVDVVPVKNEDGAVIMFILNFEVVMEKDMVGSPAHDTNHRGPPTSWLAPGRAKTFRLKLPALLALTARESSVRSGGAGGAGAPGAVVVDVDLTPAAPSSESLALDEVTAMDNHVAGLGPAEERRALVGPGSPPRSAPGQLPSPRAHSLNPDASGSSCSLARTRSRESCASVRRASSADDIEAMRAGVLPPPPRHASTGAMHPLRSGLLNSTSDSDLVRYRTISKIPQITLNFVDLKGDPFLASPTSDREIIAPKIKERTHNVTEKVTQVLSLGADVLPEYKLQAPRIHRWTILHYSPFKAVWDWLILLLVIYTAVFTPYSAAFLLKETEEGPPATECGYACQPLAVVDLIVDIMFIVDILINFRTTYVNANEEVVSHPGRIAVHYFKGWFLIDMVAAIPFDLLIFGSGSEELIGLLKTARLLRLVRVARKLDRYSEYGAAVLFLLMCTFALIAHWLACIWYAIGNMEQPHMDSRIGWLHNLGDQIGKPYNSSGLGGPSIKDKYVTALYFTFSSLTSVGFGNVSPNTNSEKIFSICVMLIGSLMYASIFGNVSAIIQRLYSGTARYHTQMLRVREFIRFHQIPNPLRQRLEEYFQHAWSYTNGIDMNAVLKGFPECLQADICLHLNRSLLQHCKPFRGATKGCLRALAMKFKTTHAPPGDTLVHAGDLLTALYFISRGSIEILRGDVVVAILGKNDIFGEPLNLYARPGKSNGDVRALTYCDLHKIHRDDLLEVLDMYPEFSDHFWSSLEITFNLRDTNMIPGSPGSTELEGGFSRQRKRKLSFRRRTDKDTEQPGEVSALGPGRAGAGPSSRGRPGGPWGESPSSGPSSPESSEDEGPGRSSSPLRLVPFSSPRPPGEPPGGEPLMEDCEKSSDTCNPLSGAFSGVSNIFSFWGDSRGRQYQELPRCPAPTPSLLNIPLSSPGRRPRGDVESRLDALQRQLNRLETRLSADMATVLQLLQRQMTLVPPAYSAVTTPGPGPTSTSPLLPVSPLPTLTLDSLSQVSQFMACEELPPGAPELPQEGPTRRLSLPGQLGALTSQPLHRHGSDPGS
# [9] = target: CYP2D6 (Homo sapiens, UniProt P10635); experiment: CYP450 enzyme testing, CYP2D6
# Chain of CYP2D6 (P10635 whole entry): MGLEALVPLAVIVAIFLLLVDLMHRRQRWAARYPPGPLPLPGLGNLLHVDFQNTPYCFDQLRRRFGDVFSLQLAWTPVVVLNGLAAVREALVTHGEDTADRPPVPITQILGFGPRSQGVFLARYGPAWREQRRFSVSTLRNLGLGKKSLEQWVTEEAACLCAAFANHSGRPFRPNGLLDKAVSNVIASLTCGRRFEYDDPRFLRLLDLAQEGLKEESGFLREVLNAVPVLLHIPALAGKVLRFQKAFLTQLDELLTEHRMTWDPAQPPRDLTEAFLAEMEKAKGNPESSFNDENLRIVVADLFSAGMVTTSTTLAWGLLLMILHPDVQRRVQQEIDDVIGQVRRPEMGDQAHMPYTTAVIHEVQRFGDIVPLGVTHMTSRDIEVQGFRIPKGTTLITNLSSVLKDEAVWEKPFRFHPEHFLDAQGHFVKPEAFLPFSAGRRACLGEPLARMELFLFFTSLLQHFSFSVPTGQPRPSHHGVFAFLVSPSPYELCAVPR
# [10] = Protein Binding (plasma), rat
# [11] = Protein Binding (plasma), human
# [12] = Metabolic Stability (half-life), human
# [13] = Self-administration Studies, Abuse liability; conditions: in vivo
# [14] = target: KOR (Mus musculus, UniProt P33534); experiment: KOR [35S]GTPγS binding assay; format: biochemical; design: expressed in transfected cells; host or cells: CHO; conditions: for Emax: read-out: 35S-GTP[γS]-Binding KOR Efficacy (% max of U50, 488H)
# Chain of KOR (P33534 whole entry): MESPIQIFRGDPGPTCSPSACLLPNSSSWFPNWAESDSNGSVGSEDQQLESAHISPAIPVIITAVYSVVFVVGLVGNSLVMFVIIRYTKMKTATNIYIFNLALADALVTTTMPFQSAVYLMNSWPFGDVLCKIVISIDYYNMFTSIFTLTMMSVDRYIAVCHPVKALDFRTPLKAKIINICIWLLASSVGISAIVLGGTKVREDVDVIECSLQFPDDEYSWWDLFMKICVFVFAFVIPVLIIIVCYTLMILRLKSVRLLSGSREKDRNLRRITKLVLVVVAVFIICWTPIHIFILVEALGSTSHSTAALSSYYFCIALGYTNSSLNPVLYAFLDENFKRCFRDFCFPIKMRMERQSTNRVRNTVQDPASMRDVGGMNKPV
# Description: as §1
# [15] = system: morphine-pelleted mice; experiment: opioid withdrawal study in morphine-pelleted mice; conditions: for Withdrawal study: wet-dog shakes, escape jumps, paw tremors: 1 mg/kg dose, compared to 1 mg/kg naloxone; for withdrawal symptoms (wet-dog shakes, escape jumps, paw tremors): 1 mg/kg s.c., compared to 1 mg/kg NLX; for withdrawal symptoms at higher doses: 5 mg/kg and above, s.c.
# [16] = In vivo Bioavailability Foral; conditions: po
# [17] = target: CYP2C19 (Homo sapiens, UniProt P33261); experiment: CYP450 enzyme testing, CYP2C19
# Chain of CYP2C19 (P33261 whole entry): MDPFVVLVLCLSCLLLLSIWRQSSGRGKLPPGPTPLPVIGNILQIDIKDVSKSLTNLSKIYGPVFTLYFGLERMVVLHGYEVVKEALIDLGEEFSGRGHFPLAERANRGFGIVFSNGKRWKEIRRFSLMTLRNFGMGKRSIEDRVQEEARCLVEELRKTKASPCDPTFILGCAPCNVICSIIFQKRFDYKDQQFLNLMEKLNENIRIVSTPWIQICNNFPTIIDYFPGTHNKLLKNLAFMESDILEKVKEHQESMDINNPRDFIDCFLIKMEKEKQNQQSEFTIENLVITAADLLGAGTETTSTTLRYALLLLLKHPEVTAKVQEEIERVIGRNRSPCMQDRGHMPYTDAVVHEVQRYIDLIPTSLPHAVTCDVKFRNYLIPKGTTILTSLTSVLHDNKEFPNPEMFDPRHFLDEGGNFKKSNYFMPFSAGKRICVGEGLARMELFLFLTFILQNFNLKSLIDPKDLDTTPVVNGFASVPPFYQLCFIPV
SMILES,35S-GTP[γS]-Binding DOR Efficacy (% max of SNC80) [1],Self-administration Studies Food vs Drug [2],hM1 binding [3],hM2 binding [4],hM4 binding [5],Solubility [6],AMES testing [7],hERG channel testing (Eurofins) [8],CYP2D6 inhibition (in words) ([9]; human),fraction unbound [10],fraction unbound [11],half-life [12],Self-administration Studies Abuse liability [13],Emax [14],"Withdrawal study: wet-dog shakes, escape jumps, paw tremors [15]",Ki [4],bioavailability [16],"withdrawal symptoms (wet-dog shakes, escape jumps, paw tremors) [15]",withdrawal symptoms at higher doses [15],further results
"O=C(N[C@H]1CC[C@@]2(O)[C@H]3Cc4ccc(O)c5c4[C@@]2(CCN3CC2CC2)[C@H]1O5)c1nccs1 [NTZ, 17-Cyclopropylmethyl-3,14β-dihydroxy-4,5α-epoxy-6α-(2′-thiazolylcarboxamido)morphinan hydrochloride]",46.51 ± 2.17%,reduce heroin choice and increase food choice in a,hM1 (53% at 10 uM),hM2 (88% at 10 uM),hM4 (67% at 10 uM),"Solubility: DMSO, H2O",No toxicity shown,7.4 µM (Eurofins),potent at CYP2D6 inhibition,0.4,0.56,> 1 h,No significant abuse liability,23.5 ± 2.03%,fewer symptoms than naloxone at the same dose.,,,,,"EC50 ([1]; read-out: 35S-GTP[γS]-Binding DOR Potency EC50): 0.0236 ± 0.00429 µM; EC50 ([14]; Tables A, B, read-out: 35S-GTP[γS]-Binding KOR Potency EC50): 0.00383 ± 0.00062 µM; Withdrawal study: precipitation of withdrawal syndromes ([15]; up to 0.1 mg/kg): No significant precipitation of withdrawal syndromes"
"O=C(N[C@H]1CCC2(O)C3Cc4ccc(O)c5c4[C@@]2(CCN3CC2CC2)[C@H]1O5)c1ccc[nH]1 (stereo partly drawn) [Example 1 compound 1, 17-Cyclopropylmethyl-3,14β-dihydroxy-4,5α-epoxy-6a-[(2′-pyrrolyl)carboxamido]morphinan hydrochloride]",50.94 ± 5.26%,reduce heroin choice and increase food choice,,58%,,,,2.6 µM,Only moderate at CYP2D6 and CYP2C19,0.43,0.43,> 1 h,No significant abuse liability,43.4 ± 1.36%,At 1 mg/kg dose of NAY produced NO wet-dog,7.28 µM,59%,,,hERG channel testing (NIH) ([8]; NIH): 12.5 µM; CYP2C19 inhibition (in words) ([17]; human): Only moderate at CYP2D6 and CYP2C19
"O=C(N[C@H]1CC[C@@]2(O)[C@H]3Cc4ccc(O)c5c4[C@@]2(CCN3CC2CC2)[C@H]1O5)c1ccsc1 [Example 1 compound 31, 17-Cyclopropylmethyl-3,14β-dihydroxy-4,5α-epoxy-6α-(3′-thienylcarboxamido)morphinan hydrochloride]",58.5 ± 3.13%,reduce heroin choice and increase food choice in a,hM1 (62% at 10 uM),hM2 (82% at 10 uM),hM4 (65% at 10 uM),"Solubility: DMSO, H2O",No toxicity shown,1.3 µM (Eurofins),,0.44,0.4,> 1 h,No significant abuse liability,,"produced significantly fewer wet-dog shakes,",,15%,"significantly fewer wet-dog shakes, escape jumps, and paw tremors",started showing wet dog shakes and jumps at a 5 mg/kg dose,CYP2D6 inhibition (in words) [9]: Only moderate at CYP2D6 and CYP2C19; CYP2C19 inhibition (in words) [17]: Only moderate at CYP2D6 and CYP2C19
"O=C(N[C@H]1CC[C@@]2(O)[C@H]3Cc4ccc(O)c5c4[C@@]2(CCN3CC2CC2)[C@H]1O5)c1cccs1 [Example 1 compound 25, 17-Cyclopropylmethyl-3,14β-dihydroxy-4,5α-epoxy-6α-(2′-thienylcarboxamido)morphinan hydrochloride]",48.58 ± 3.41%,,53%,81%,61%,"Solubility: DMSO, H2O",No toxicity shown,2.5 µM (Eurofins),,0.36,0.63,> 1 h,,50.6 ± 0.95%,,1.9 µM,19%,"significantly fewer wet-dog shakes, escape jumps, and paw tremors",started showing wet dog shakes and jumps at a 5 mg/kg dose,"Ki [3]: 8.4 µM; Ki [5]: 4.9 µM; CYP2C19 inhibition [17]: Only CYP2C19 inhibition (~3 uM); Withdrawal study: wet-dog shakes, escape jumps, paw tremors at high dose ([15]; high dose (5 to 20 mg/kg), compared to naloxone at 1 mg/kg, listed as NAT, hydrochloride): lower compared to naloxone at 1 mg/kg."
